Results from US7572606B1 (Nereus Pharmaceuticals, Inc., priority 2005, dated 2009).
Like-named read-outs stand apart in the source and are kept apart here.

Columns and labels:
Test in all cases: NCI 60 cell line screen, sulforhodamine B, 48 h
Type in all cases: cell-based, human
SK-OV-3 = conditions: SK-OV-3, Ovarian Cancer
Method: (§1) A detailed description of the screening procedure can be found at hypertext transfer protocol (http://) “dtp.nci.nih.gov/branches/btb/ivclsp.html.”
(§2) In brief, each of the 60 human tumor cell lines were grown in RPMI 1640 medium, supplemented with 5% fetal bovine serum and 2 mM L-glutamine. Cells were plated at their appropriate density in 96-well microtiter plates and incubated at 37° C., 5% CO2, 95% air and 100% relative humidity. […] Cells were incubated for an additional 48 hours and a sulforhodamine B protein assay was used to estimate cell viability or growth.

DU-145 = tested on: DU-145
Method: as §1, §2

BT-459 = tested on: BT-459
Method: as §1, §2

HT29 = tested on: HT29
Method: as §1, §2

SK-MEL-21 = conditions: for CC50: Homo sapiens
Method: as §1, §2

RPMI-8226 = tested on: RPMI-8226
Method: as §1, §2

OVCAR-3 = conditions: OVCAR-3, Ovarian Cancer
Method: as §1, §2

LOX IMVI = conditions: Melanoma
Method: as §1, §2

MALME-3M = conditions: Melanoma
Method: as §1, §2

U251 = conditions: U251, CNS Cancer
Method: as §1, §2

SNB-75 = conditions: SNB-75, CNS Cancer
Method: as §1, §2

HDP-62 = conditions: HDP-62, Non-Small Cell Lung Cancer
Method: as §1, §2

NCVADR-RES = tested on: NCVADR-RES
Method: as §1, §2

NCI-H236 = conditions: NCI-H236, Non-Small Cell Lung Cancer
Method: as §1, §2

tGROV1 = conditions: tGROV1, Ovarian Cancer
Method: as §1, §2

NCI-H322M = conditions: Non-Small Cell Lung Cancer
Method: as §1, §2

NCI-H522 = conditions: NCI-H522, Non-Small Cell Lung Cancer
Method: as §1, §2

SF-268 = conditions: SF-268, CNS Cancer
Method: as §1, §2

TK-10 = conditions: TK-10, Renal Cancer
Method: as §1, §2

PC-3 = tested on: PC-3
Method: as §1, §2

SK-MEL-2 = conditions: SK-MEL-2, Melanoma
Method: as §1, §2

CCRF-CEM = conditions: Leukemia
Method: as §1, §2

SF-295 = conditions: SF-295, CNS Cancer
Method: as §1, §2

RXF393 = conditions: RXF393, Renal Cancer
Method: as §1, §2

SN12C = conditions: Renal Cancer
Method: as §1, §2

MDA-N = conditions: Breast Cancer
Method: as §1, §2

HCT-116 = conditions: HCT-116, Colon Cancer
Method: as §1, §2

A549/ATCC = conditions: Non-Small Cell Lung Cancer
Method: as §1, §2

UACC-62 = tested on: UACC-62
Method: as §1, §2

MOLT-4 = tested on: MOLT-4
Method: as §1, §2

HCC-2998 = tested on: HCC-2998
Method: as §1, §2

[1] = Homo sapiens, 60 cell, read-out: Log10 LC50 (converted)

C[C@@]12OC(=O)[C@]1([C@@H](O)[C@@H]1C=CCCC1)NC(=O)[C@@H]2CCCl [Formula II-16, Salinosporamide A]
Log10 G150 (SK-OV-3): <-8.00 Molar | Log10 TGI (SK-OV-3): <-8.00 Molar | Log10 G150 (DU-145; DU-145, Prostate Cancer): <-8.00 Molar | Log10 TGI (DU-145; DU-145, Prostate Cancer): >-4.00 Molar | CC50 (DU-145; Homo sapiens, DU-145, read-out: Log10 LC50 (converted)): > 100000 nM | Log10 G150 (BT-459; BT-459, Breast Cancer): <-8.00 Molar | Log10 TGI (BT-459; BT-459, Breast Cancer): <-8.00 Molar | CC50 (BT-459; [1]): 60.3 nM | Log10 G150 (HT29; HT29, Colon Cancer): <-8.00 Molar | Log10 TGI (HT29; HT29, Colon Cancer): -7.37 Molar | CC50 (HT29; Homo sapiens, HT-29, read-out: Log10 LC50 (converted)): 38000 nM | CC50 (SK-MEL-21; 60 cell, read-out: Log10 LC50 (converted)): < 10 nM | CC50 (SK-MEL-21; SK-MEL-28, read-out: LC50): < 10 nM | Log10 G150 (SK-MEL-21; SK-MEL-21, Melanoma): <-8.00 Molar | Log10 TGI (SK-MEL-21; SK-MEL-21, Melanoma): <-8.00 Molar | CC50 (RPMI-8226; Homo sapiens, RPMI-8226, read-out: Log10 LC50 (converted)): > 100000 nM | Log10 G150 (RPMI-8226; RPMI-8226, Leukemia): <-8.00 Molar | Log10 TGI (RPMI-8226; RPMI-8226, Leukemia): <-8.00 Molar | Log10 G150 (OVCAR-3): <-8.00 Molar | Log10 TGI (OVCAR-3): -4.83 Molar | Log10 G150 (LOX IMVI): <-8.00 Molar | Log10 TGI (LOX IMVI): -7.87 Molar | Log10 G150 (MALME-3M): <-8.00 Molar | Log10 TGI (MALME-3M): <-8.00 Molar | Log10 G150 (U251): <-8.00 Molar | Log10 TGI (U251): -5.99 Molar | Log10 G150 (SNB-75): <-8.00 Molar | Log10 TGI (SNB-75): <-8.00 Molar | Log10 G150 (HDP-62): <-8.00 Molar | Log10 TGI (HDP-62): -4.89 Molar | CC50 (NCVADR-RES; [1]): 178 nM | Log10 G150 (NCVADR-RES; NCVADR-RES, Breast Cancer): <-8.00 Molar | Log10 TGI (NCVADR-RES; NCVADR-RES, Breast Cancer): <-8.00 Molar | Log10 G150 (NCI-H236): <-8.00 Molar | Log10 TGI (NCI-H236): <-8.00 Molar | Log10 G150 (tGROV1): <-8.00 Molar | Log10 TGI (tGROV1): -5.18 Molar | Log10 G150 (NCI-H322M): <-8.00 Molar | Log10 TGI (NCI-H322M): -5.48 Molar | Log10 G150 (NCI-H522): <-8.00 Molar | Log10 TGI (NCI-H522): <-8.00 Molar | Log10 G150 (SF-268): <-8.00 Molar | Log10 TGI (SF-268): -6.92 Molar | Log10 G150 (TK-10): <-8.00 Molar | Log10 TGI (TK-10): -7.13 Molar | CC50 (PC-3; Homo sapiens, PC-3, read-out: Log10 LC50 (converted)): 11700 nM | Log10 G150 (PC-3; PC-3, Prostate Cancer): <-8.00 Molar | Log10 TGI (PC-3; PC-3, Prostate Cancer): -5.81 Molar | Log10 G150 (SK-MEL-2): <-8.00 Molar | Log10 TGI (SK-MEL-2): <-8.00 Molar | Log10 G150 (CCRF-CEM): <-8.00 Molar | Log10 TGI (CCRF-CEM): <-8.00 Molar | Log10 G150 (SF-295): <-8.00 Molar | Log10 TGI (SF-295): <-8.00 Molar | Log10 G150 (RXF393): <-8.00 Molar | Log10 TGI (RXF393): <-8.00 Molar | Log10 G150 (SN12C): <-8.00 Molar | Log10 TGI (SN12C): <-8.00 Molar | Log10 G150 (MDA-N): <-8.00 Molar | Log10 TGI (MDA-N): <-8.00 Molar | Log10 G150 (HCT-116): <-8.00 Molar | Log10 TGI (HCT-116): -7.14 Molar | Log10 G150 (A549/ATCC): <-8.00 Molar | Log10 TGI (A549/ATCC): -4.70 Molar | CC50 (UACC-62; Homo sapiens, UACC-62, read-out: Log10 LC50 (converted)): 91.2 nM | Log10 G150 (UACC-62; UACC-62, Melanoma): <-8.00 Molar | Log10 TGI (UACC-62; UACC-62, Melanoma): <-8.00 Molar | CC50 (MOLT-4; Homo sapiens, MOLT-4, read-out: Log10 LC50 (converted)): > 100000 nM | Log10 G150 (MOLT-4; MOLT-4, Leukemia): <-8.00 Molar | Log10 TGI (MOLT-4; MOLT-4, Leukemia): <-8.00 Molar | Log10 G150 (HCC-2998; HCC-2998, Colon Cancer): <-8.00 Molar | Log10 TGI (HCC-2998; HCC-2998, Colon Cancer): <-8.00 Molar | CC50 (HCC-2998; Homo sapiens, HCC 2998, read-out: Log10 LC50 (converted)): 17.8 nM
